Laboratory results taken from patent publication US20230406865A1, “CRYSTAL FORM OF FREE BASE OF INHIBITOR CONTAINING BICYCLIC RING DERIVATIVE AND PREPARATION METHOD AND APPLICATION OF CRYSTAL FORM” (SHANGHAI HANSOH BIOMEDICAL CO., LTD., priority 2020, published 2023).

Experiments:
RET M918T = target: T1, RET M918T (Homo sapiens, UniProt P07949, M918T); experiment: HTRF kinase activity inhibition, RET M918T; assay type: biochemical; details: ATP at Km
T1 construct: purchased Carna 08-508
Description: (§1) 2.2 Experimental Reagents: • RET enzyme was purchased from Carna Company, and the article number was 08-159; • RET M918T enzyme was purchased from Carna Company, and the article number was 08-508; • KIF5B-RET was purchased from SignalChem Company, the article number was R02-19FG-05; • CCDC6-RET was purchased from SignalChem Company, the article number was R02-19BG-05; • RET V804M enzyme was purchased from Thermofisher Company, and the article number was PV6223; • RET V804L enzyme was purchased from Thermofisher Company, and the article number was PV4397; • HTRF KinEASE-TK kit was purchased from Cisbio Company, and the article number was 62TK0PEC; • ATP was purchased from Thermofisher Company, and the article number was PV3227; • 384-well plate was purchased from PerkinElmer Company, and the article number was 6007290.
(§2) In this experiment, a homogeneous time-resolved fluorescence (HTRF) method was used for the detection of compounds on RET kinase activity.

KIF5B-RET = target: T2, KIF5B-RET (Homo sapiens, UniProt P07949); experiment: HTRF kinase activity inhibition, KIF5B-RET; assay type: biochemical; details: ATP at Km
T2 construct: purchased SignalChem R02-19FG-05; the other entry of the earlier key: KIF5B (P33176, Kinesin-1 heavy chain)
T2 sequence (P07949 with tags, fused parts or gaps): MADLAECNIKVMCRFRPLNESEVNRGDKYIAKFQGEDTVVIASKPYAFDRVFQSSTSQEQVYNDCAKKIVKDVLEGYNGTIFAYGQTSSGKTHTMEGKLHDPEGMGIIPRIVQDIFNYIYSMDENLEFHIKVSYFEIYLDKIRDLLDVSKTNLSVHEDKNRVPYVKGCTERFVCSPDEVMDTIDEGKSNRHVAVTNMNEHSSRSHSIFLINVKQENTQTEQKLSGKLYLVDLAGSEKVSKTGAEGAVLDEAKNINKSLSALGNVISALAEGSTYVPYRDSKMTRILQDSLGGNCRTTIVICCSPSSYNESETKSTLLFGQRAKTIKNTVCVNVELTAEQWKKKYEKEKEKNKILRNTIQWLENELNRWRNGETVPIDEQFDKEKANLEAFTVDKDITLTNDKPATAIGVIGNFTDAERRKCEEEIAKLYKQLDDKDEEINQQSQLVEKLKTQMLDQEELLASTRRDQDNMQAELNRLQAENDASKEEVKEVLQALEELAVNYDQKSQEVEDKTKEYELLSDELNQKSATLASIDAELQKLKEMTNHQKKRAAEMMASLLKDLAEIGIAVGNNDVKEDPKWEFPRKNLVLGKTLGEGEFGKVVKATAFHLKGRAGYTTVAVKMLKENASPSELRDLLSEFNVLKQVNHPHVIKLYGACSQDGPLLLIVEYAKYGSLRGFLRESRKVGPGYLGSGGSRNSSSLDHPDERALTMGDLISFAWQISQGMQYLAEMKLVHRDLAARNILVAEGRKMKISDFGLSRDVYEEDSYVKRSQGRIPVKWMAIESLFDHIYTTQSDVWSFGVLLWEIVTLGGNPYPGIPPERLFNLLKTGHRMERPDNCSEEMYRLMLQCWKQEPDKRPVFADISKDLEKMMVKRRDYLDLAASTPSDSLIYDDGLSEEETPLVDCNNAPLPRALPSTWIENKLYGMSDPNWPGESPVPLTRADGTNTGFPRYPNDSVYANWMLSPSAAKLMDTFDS
Description: as §1, §2

KDR kinase = target: T3, KDR kinase (Homo sapiens, UniProt P35968); experiment: HTRF kinase activity inhibition, KDR; assay type: biochemical; details: for IC50: HTRF, ATP at Km; for Ratio (KDR/RET): KDR IC50 / RET IC50
T3 construct: purchased Carna 08-191
T3 sequence (P35968 20-1356): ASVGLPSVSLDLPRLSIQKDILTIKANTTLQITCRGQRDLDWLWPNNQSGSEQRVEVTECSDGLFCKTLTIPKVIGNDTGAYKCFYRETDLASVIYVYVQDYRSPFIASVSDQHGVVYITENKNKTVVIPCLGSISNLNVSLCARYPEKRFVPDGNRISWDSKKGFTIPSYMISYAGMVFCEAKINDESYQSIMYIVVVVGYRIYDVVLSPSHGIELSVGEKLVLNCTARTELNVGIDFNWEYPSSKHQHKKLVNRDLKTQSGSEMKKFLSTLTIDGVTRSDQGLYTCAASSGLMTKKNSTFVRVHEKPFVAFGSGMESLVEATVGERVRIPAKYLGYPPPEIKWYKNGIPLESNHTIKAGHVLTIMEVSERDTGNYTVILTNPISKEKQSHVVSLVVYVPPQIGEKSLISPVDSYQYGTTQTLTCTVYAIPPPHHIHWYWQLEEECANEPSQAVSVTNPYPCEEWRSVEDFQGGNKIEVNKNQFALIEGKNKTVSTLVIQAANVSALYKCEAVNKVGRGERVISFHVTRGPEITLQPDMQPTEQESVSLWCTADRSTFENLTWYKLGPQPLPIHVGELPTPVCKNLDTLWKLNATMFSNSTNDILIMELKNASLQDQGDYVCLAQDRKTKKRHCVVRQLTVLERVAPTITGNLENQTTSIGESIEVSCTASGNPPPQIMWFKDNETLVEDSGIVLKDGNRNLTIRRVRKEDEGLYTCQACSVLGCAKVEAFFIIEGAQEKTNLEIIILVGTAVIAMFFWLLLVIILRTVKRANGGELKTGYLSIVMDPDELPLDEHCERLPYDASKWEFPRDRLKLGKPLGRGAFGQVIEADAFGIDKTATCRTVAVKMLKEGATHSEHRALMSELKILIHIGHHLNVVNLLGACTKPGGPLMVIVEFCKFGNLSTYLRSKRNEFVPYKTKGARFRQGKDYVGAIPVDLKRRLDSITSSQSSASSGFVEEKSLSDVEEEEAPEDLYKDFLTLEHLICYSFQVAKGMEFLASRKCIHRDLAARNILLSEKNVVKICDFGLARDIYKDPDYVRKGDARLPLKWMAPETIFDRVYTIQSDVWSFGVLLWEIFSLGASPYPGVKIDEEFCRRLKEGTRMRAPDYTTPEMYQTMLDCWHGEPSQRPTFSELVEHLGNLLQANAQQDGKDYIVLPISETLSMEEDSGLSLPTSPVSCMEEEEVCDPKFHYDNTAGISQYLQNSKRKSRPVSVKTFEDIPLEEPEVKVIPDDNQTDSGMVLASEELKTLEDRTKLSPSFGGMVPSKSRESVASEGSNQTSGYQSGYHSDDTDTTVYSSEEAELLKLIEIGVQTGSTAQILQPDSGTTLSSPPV
Summary of the method: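 Inhibition of KDR kinase activity measured by homogeneous time-resolved fluorescence with a tyrosine-kinase KinEASE substrate kit and ATP.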

[1] = tested on: TT cells (MTC, RET C634W); experiment: Inhibition of proliferation of TT cells (CellTiter-Glo, 72 h); assay type: cell-based; details: Homo sapiens
Summary of the method: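 TT cells seeded overnight, then exposed to compound dilutions for 72 h at 37 °C, 5% CO2, with a solvent control. Viability read by CellTiter-Glo luminescence; IC50 from nonlinear regression of inhibition rate versus concentration.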

CCDC6-RET = target: T4, CCDC6-RET (Homo sapiens, UniProt P07949); experiment: HTRF kinase activity inhibition, CCDC6-RET; assay type: biochemical; details: ATP at Km
T4 construct: purchased SignalChem R02-19BG-05; the other entry of the earlier key: CCDC6 (Q16204, Coiled-coil domain-containing protein 6)
T4 sequence (P07949 with tags, fused parts or gaps): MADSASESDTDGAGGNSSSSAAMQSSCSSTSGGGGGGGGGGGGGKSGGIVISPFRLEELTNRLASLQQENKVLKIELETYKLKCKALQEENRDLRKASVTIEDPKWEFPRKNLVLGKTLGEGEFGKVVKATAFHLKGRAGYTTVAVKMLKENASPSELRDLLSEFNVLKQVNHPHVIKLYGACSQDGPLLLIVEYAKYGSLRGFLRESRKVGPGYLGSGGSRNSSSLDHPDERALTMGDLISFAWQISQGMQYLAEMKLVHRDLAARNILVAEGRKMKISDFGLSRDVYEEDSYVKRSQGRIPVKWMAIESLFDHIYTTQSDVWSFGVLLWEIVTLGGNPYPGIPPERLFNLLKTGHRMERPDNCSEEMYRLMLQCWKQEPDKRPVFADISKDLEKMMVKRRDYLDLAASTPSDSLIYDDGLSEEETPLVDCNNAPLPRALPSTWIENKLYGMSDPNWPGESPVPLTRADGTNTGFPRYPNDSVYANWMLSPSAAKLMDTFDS
Description: as §1, §2

T1 sequence (P07949 29-1114 M918T): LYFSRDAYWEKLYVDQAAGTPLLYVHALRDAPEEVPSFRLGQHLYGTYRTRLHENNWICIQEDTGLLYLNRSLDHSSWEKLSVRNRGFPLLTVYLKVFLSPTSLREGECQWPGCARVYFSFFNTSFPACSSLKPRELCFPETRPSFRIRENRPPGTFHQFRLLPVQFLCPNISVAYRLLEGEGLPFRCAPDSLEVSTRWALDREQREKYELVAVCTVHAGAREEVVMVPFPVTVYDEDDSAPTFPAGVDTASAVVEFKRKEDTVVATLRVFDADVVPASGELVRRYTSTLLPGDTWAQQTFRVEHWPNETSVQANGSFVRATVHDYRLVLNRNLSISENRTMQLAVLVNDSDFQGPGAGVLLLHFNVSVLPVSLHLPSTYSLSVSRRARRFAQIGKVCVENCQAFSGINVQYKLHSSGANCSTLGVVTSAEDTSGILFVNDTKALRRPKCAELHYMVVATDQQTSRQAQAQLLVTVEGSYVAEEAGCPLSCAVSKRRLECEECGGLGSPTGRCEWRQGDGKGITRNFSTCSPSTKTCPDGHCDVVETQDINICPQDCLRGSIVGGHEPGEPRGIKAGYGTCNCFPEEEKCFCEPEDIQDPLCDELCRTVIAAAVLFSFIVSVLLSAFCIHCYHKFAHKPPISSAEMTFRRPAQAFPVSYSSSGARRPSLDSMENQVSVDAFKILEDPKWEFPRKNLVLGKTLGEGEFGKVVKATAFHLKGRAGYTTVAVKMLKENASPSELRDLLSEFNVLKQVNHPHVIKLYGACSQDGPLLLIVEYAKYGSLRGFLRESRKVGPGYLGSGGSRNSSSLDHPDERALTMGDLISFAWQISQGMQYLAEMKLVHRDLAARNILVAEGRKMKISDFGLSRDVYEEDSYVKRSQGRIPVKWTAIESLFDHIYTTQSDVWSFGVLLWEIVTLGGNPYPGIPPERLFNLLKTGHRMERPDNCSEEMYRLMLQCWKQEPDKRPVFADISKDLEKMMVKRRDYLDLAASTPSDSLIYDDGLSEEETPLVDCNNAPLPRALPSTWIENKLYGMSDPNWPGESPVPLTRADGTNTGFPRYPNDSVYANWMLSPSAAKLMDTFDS

Structure (SMILES) | IC50 (RET M918T) [nM] | IC50 (KIF5B-RET) [nM] | IC50 (KDR kinase) [nM] | Ratio (KDR/RET) (KDR kinase) | IC50 [1] [nM] | IC50 (CCDC6-RET) [nM]
COc1ccc(CN2C3CC2CN(c2ccc(-c4cc(N5CC(C)(C#N)C5)cn5ncc(C#N)c45)cn2)C3)cn1 [Embodiment 77, 6-(3-Cyano-3-methylazetidin-1-yl)-4-(6-(6-((6-methoxypyridin-3-yl)methyl)-3,6-diazabicyclo[3.1.1]heptan-3-yl)pyridin-3-yl)pyrazolo[1,5-a]pyridine-3-carbonitrile] | 0.41 | 0.42 | 6.9 | 19 | 4.1 | 0.98
C#C[C@](C)(O)COc1cc(-c2ccc(N3CC4CC(C3)N4Cc3ccc(OC)nc3)nc2)c2c(C#N)cnn2c1 [Embodiment 64, 6-(((S)-2-hydroxy-2-methylbut-3-yn-1-yl)oxy)-4-(6-(6-((6-methoxypyridin-3-yl)methyl)-3,6-diazabicyclo[3.1.1]heptan-3-yl)pyridin-3-yl)pyrazolo[1,5-a]pyridine-3-carbonitrile] | 0.17 | 0.36 | 44.3 | 118 | 27.8 | 1.74
COc1ncc(CN2C3CC2CN(c2ccc(-c4cc(C#CC(C)(C)O)cn5ncc(C#N)c45)cn2)C3)cc1F [Embodiment 18, 4-(6-(6-((5-Fluoro-6-methoxypyridin-3-yl)methyl)-3,6-diazabicyclo[3.1.1]heptan-3-yl)pyridin-3-yl)-6-(3-hydroxy-3-methylbut-1-yn-1-yl)pyrazolo[1,5-a]pyridine-3-carbonitrile] | 0.66 | 0.97 | 23 | 73 | 19 | 
C#C[C@@](C)(O)COc1cc(-c2ccc(N3CC4CC(C3)N4Cc3ccc(OC)nc3)nc2)c2c(C#N)cnn2c1 [Embodiment 63, 6-(((R)-2-hydroxy-2-methylbut-3-yn-1-yl)oxy)-4-(6-(6-((6-methoxypyridin-3-yl)methyl)-3,6-diazabicyclo[3.1.1]heptan-3-yl)pyridin-3-yl)pyrazolo[1,5-a]pyridine-3-carbonitrile] | 0.21 | 0.53 | 21.7 | 63 | 14.1 | 0.85
